Active and inactive are the calls of the source.
How the values were obtained:
[1] = target: T1, Aurora kinase A (Homo sapiens) (UniProt O14965); experiment: Inhibition of Aurora A at 10 uM by IMAP fluorescence polarization assay
T1 sequence (whole entry): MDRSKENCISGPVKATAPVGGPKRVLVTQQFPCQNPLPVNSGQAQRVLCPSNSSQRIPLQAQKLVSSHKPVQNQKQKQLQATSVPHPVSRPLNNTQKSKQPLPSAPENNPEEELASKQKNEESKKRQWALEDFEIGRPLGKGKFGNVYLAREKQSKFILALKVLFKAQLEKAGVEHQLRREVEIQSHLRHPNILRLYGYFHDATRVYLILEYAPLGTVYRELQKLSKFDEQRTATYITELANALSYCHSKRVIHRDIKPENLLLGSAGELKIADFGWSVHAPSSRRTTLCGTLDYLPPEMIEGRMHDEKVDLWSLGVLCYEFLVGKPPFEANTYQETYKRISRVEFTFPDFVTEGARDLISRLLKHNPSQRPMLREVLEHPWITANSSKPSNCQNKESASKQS

[2] = target: T1, Aurora kinase A (Homo sapiens); experiment: Inhibition of Aurora A at 100 uM by IMAP fluorescence polarization assay
[3] = target: T1, Aurora kinase A (Homo sapiens); experiment: Binding affinity to GST-tagged Aurora A after 1 hr by ELISA

| Compound | inhibition [1] [%] | inhibition [2] | Activity [3] |
| --- | --- | --- | --- |
| H-AELAALEAELAALEGRRVVVAFAWDKLAALKAKLAALKA-NH2 | 42 | – | – |
| H-AELAALEAELAALEGGGGGGGKLAALKAKLAALKAY-NH2 | – | inactive | inactive |
| H-GRRVVVAFAWD-NH2 | – | inactive | – |
| H-AELAALEAELAALEGVGEFSVSLLGKLAALKAKLAALKA-OH | – | inactive | Active |
| H-AELAALEAELAALEGSSERKLVLLGKLAALKAKLAALKA-OH | – | 17% | Active |
| H-AELAALEAELAALEGARHFYVQSVGKLAALKAKLAALKA-OH | – | inactive | Active |
| H-AELAALEAELAALEGERRLIIFNSGKLAALKAKLAALKA-OH | – | 20% | Active |
| CC[C@H](C)[C@H](NC(=O)[C@H](CCCNC(=N)N)NC(=O)CNC(=O)[C@H](CC(C)C)NC(=O)[C@H](CC(C)C)NC(=O)[C@@H]1CCCN1C(=O)[C@H](CO)NC(=O)[C@H](Cc1c[nH]c2ccccc12)NC(=O)CNC(=O)[C@H](CCC(=O)O)NC(=O)[C@H](CC(C)C)NC(=O)[C@H](C)NC(=O)[C@H](C)NC(=O)[C@H](CC(C)C)NC(=O)[C@H](CCC(=O)O)NC(=O)[C@H](C)NC(=O)[C@H](CCC(=O)O)NC(=O)[C@H](CC(C)C)NC(=O)[C@H](C)NC(=O)[C@H](C)NC(=O)[C@H](CC(C)C)NC(=O)[C@H](CCC(=O)O)NC(=O)[C@@H](C)N)C(=O)N[C@@H](CC(C)C)C(=O)NCC(=O)N[C@@H](CCCCN)C(=O)N[C@@H](CC(C)C)C(=O)N[C@@H](C)C(=O)N[C@@H](C)C(=O)N[C@@H](CC(C)C)C(=O)N[C@@H](CCCCN)C(=O)N[C@@H](C)C(=O)N[C@@H](CCCCN)C(=O)N[C@@H](CC(C)C)C(=O)N[C@@H](C)C(=O)N[C@@H](C)C(=O)N[C@@H](CC(C)C)C(=O)N[C@@H](CCCCN)C(=O)N[C@@H](C)C(=O)O | – | – | Active |
| H-AELAALEAELAALEGRRVVVSFAWDGKLAALKAKLAALKA-OH | – | 35% | Active |
| H-AELAALEAELAALEGKVYMFWTIMGKLAALKAKLAALKA-OH | – | – | Active |
| H-AELAALEAELAALEGWGGLMGWISGKLAALKAKLAALKA-OH | – | – | Active |
| H-AELAALEAELAALEGLQTMWHSLWGKLAALKAKLAALKA-OH | – | – | Active |
| H-AELAALEAELAAPEGSQERKGVLAGKLAALKAKLAALKA-OH | – | – | Active |
| H-AELAALEAELAALEGYEGQFMWLIGKLAALKAKLAALKA-OH | – | – | Active |
| CC(C)C[C@H](NC(=O)[C@H](C)NC(=O)[C@H](C)NC(=O)[C@H](CC(C)C)NC(=O)[C@H](CCC(=O)O)NC(=O)[C@H](C)NC(=O)[C@H](CCC(=O)O)NC(=O)[C@H](CC(C)C)NC(=O)[C@H](C)NC(=O)[C@H](C)NC(=O)[C@H](CC(C)C)NC(=O)[C@H](CCC(=O)O)NC(=O)[C@H](C)N)C(=O)N[C@@H](CCC(=O)O)C(=O)NCC(=O)N[C@@H](CCCNC(=N)N)C(=O)N[C@@H](CCCCN)C(=O)N[C@@H](CC(=O)O)C(=O)N[C@@H](Cc1ccc(O)cc1)C(=O)N[C@@H](Cc1ccccc1)C(=O)N[C@@H](Cc1cnc[nH]1)C(=O)N[C@@H](CC(C)C)C(=O)N[C@@H](Cc1c[nH]c2ccccc12)C(=O)N[C@@H](Cc1cnc[nH]1)C(=O)N[C@@H](CC(=O)O)C(=O)NCC(=O)N[C@@H](CCCCN)C(=O)N[C@@H](CC(C)C)C(=O)N[C@@H](C)C(=O)N[C@@H](C)C(=O)N[C@@H](CC(C)C)C(=O)N[C@@H](CCCCN)C(=O)N[C@@H](C)C(=O)N[C@H](CCCCN)C(=O)N[C@H](CC(C)C)C(=O)N[C@H](C)C(=O)N[C@H](C)C(=O)N[C@H](CC(C)C)C(=O)N[C@H](CCCCN)C(=O)N[C@H](C)C(=O)O | – | – | Active |
